pIC50: −log10 of the molar value.

By pIC50 is commonly meant −log10 of the IC50, conventionally taken in molar units.

One series addresses T1, tau protein (Homo sapiens, UniProt P10636).
T1 construct: fused on or other part: Split fluorescent-protein halves for BiFC are fused to tau; In the published tau-BiFC line these are Venus VN173 and VC155
The series can be described thus: Tau-BiFC cell model: inhibition of tau protein aggregation. The format is cell-based. To be noted: for remaining activity at 10 µM: 48 h, read-out: Response (% @10 μM); for pIC50: Tau BiFC in cells, with Forskolin 30 μM, 48 hours. The procedure: (§1) In order to select novel tau protein aggregation-inhibiting substances, tau-BiFC cell model, in which formation of tau oligomers in living cells is easily observed, was used. Tau-BiFC cells were aliquoted into a 384-well plate. On the next day, the cells were treated with each of the compounds prepared according to Examples 1 to 175 at concentrations of 1 μM, 3 μM, and 10 μM, together with Forskolin (at a treatment concentration of 30 μM), which is a compound inducing tau protein aggregation by activating tau […] PKA. After 48 hours, nuclei in the cells were stained using Hoechst (at a treatment concentration of 2 μg/mL), and BiFC fluorescence intensity was automatically measured using Operetta (PerkinElmer) to count stained nuclei in each well out of the entire well plate. The group treated only with Forskolin, which induces tau protein aggregation, was set to a reference point of a 100% tau protein-aggregated state, and the effects of the compounds were confirmed using the equation “BiFC fluorescence intensity due to compound synthesized according to embodiment of present invention/(fluorescence intensity of control group treated only with Forskolin inducing tau protein aggregation−fluorescence intensity of untreated control group)×100”. Furthermore, the degree of cytotoxicity induced by the newly synthesized compound was also measured based on the 100% cell viability of the group treated only with Forskolin as a reference, and the cytotoxicity value of each compound was calculated using the equation “(number of stained nuclei in group treated with compound/number of stained nuclei in group treated with Forskolin)×100”. Based on the treatment results, substances inhibiting intracellular tau protein aggregation were selected from a series of candidate groups showing a tau protein aggregation inhibition rate of 70% or more and cell viability of 100% at a compound treatment concentration of 10 μM or more.
(§2) In order to evaluate dose-dependent tau protein aggregation inhibition effects of the compounds selected according to Experimental Example 1 on tau protein aggregation, tau-BiFC cells were treated with the selected compounds at concentrations of 0.03 μM, […], 0.3 μM, 1 μM, 3 μM, 10 μM, and 30 μM, respectively, together with Forskolin (at a treatment concentration of 30 μM), which is a tau protein aggregation inducing substance. After 48 hours, tau protein aggregation reaction and degrees of cytotoxicity were analyzed by observing images of the cells. IC50 and toxicity of the compounds were analyzed by way of nonlinear regression analysis of prism software (Graph Pad).

Another series relates to Tau-BiFC cells. The series can be described thus: Cell viability (cytotoxicity) in tau-BiFC cells, count of stained nuclei. The note with it: compound 10 μM; Forskolin-only group = 100% cell viability. The format is cell-based. The procedure: as §1, §2
Setting [1] is: compound 10 μM, BiFC fluorescence, Forskolin-only group = 100% tau protein-aggregated state.

T1 sequence (P10636 2-441 isoform P10636-8 limits assumed): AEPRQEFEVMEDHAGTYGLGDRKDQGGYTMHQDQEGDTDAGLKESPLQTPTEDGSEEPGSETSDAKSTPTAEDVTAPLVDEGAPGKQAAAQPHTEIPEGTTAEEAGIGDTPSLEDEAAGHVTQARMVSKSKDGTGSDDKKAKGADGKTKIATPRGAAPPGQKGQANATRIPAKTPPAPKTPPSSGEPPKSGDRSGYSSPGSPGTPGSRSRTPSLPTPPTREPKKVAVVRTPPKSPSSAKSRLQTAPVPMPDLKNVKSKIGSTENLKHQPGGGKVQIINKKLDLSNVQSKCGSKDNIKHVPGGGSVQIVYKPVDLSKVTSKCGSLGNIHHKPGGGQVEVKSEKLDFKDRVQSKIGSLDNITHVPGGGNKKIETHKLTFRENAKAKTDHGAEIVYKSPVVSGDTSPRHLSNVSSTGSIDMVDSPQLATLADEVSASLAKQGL

Regarding `CN(N=C(C#N)C#N)c1ccc(Oc2ccccc2)cn1` [Compound 75, methyl(5-phenoxypyridin-2-yl)carbonohydrazonoyl dicyanide], the remaining activity at 10 µM at tau protein (setting [1]) was 102%. The “Cell viability (% @10 μM)” value with Tau-BiFC cells is 131.4%.
On to `N#CC(C#N)=NNc1ccc(OCCc2ccccc2)nc1` [Compound 100, (6-phenethoxypyridin-3-yl)carbonohydrazonoyl dicyanide], for which, on tau protein (setting [1]), the remaining activity at 10 µM was determined as 0%. Further, at tau protein, the pIC50 was 6.11. The “Cell viability (% @10 μM)” value in the series on Tau-BiFC cells is listed as 39.4%.
`COc1ccc(CCOc2ccc(NN=C(C#N)C#N)cn2)cc1` [Compound 102, (6-(4-methoxyphenethoxy)pyridin-3-yl)carbonohydrazonoyl dicyanide]: the remaining activity at 10 µM at tau protein (setting [1]) was 0%. Besides, on tau protein, the pIC50 is 6.02. Further, in the series on Tau-BiFC cells, the “Cell viability (% @10 μM)” value amounted to 54.5%.
As to `Cc1ccc(S(=O)(=O)Nc2ccc(NN=C(C#N)C#N)cn2)cc1` [Compound 63, (6-(4-methylphenylsulfonamido)pyridin-3-yl)carbonohydrazonoyl dicyanide], on tau protein (setting [1]), the remaining activity at 10 µM turned out to be 11.5%. In the series with Tau-BiFC cells, the “Cell viability (% @10 μM)” value is on record as 136.7%.
Regarding `N#CC(C#N)=NNc1ccc(Oc2ccc(C(F)(F)F)cn2)cc1` [Compound 90, (4-(5-(trifluoromethyl)pyridin-2-yloxy)phenyl)carbonohydrazonoyl dicyanide], the remaining activity at 10 µM on tau protein (setting [1]) came to 0%. This compound also showed a pIC50 at tau protein of 5.89. In addition, the “Cell viability (% @10 μM)” value with Tau-BiFC cells is given as 43.7%.
The like results for `N#CC(C#N)=NNc1ccc(NC(=O)c2cnc3ccccc3n2)nc1` [Compound 32, (6-(quinoxaline-2-carboxamido)pyridin-3-yl)carbonohydrazonoyl dicyanide] were, in that order, 0%, 6.51 and 145.3%.
As to `Cc1cnc(NC(=O)c2ccc(NN=C(C#N)C#N)cc2C)cn1` [Compound 52, (3-methyl-4-(5-methylpyrazin-2-ylcarbamoyl)phenyl)carbonohydrazonoyl dicyanide], the remaining activity at 10 µM on tau protein (setting [1]) was determined as 24%. The “Cell viability (% @10 μM)” value with Tau-BiFC cells is listed as 120.2%.
Consider `N#CC(C#N)=NNc1ccc(NC(=O)c2ncccn2)nc1` [Compound 29, (6-(pyrimidine-2-carboxamido)pyridin-3-yl)carbonohydrazonoyl dicyanide], for which the remaining activity at 10 µM on tau protein (setting [1]) came to 0%. This compound gave a pIC50 at tau protein of 5.98. The “Cell viability (% @10 μM)” value in the series on Tau-BiFC cells came out at 139.9%.
Take `Cc1ccc(COc2ccc(NN=C(C#N)C#N)cc2)cc1` [Compound 119, (4-(4-methylbenzyloxy)phenyl)carbonohydrazonoyl dicyanide]: the remaining activity at 10 µM at tau protein (setting [1]) amounted to 38.9%. Further, the pIC50 against tau protein was 5.45. Further, in the series on Tau-BiFC cells, the “Cell viability (% @10 μM)” value is 112.5%.
For the compound `Cn1cc(S(=O)(=O)Nc2ccc(NN=C(C#N)C#N)cn2)cn1` [Compound 61, (6-(1-methyl-1H-pyrazole-4-sulfonamido)pyridin-3-yl)carbonohydrazonoyl dicyanide], at tau protein (setting [1]), the remaining activity at 10 µM turned out to be 109%. The “Cell viability (% @10 μM)” value in the series with Tau-BiFC cells is recorded as 112.7%.
Take `N#CC(C#N)=NNc1ccc(Oc2ccccc2C#N)cc1` [Compound 86, (4-(2-cyanophenoxy)phenyl)carbonohydrazonoyl dicyanide]: the remaining activity at 10 µM on tau protein (setting [1]) stood at 0%. This compound gave a pIC50 against tau protein of 5.67. Besides, in the series with Tau-BiFC cells, the “Cell viability (% @10 μM)” value is recorded as 72.6%.
With `Cc1cncc(NC(=O)c2ccc(NN=C(C#N)C#N)cn2)n1` [Compound 41, (6-(6-methylpyrazin-2-ylcarbamoyl)pyridin-3-yl)carbonohydrazonoyl dicyanide], on tau protein (setting [1]), the remaining activity at 10 µM stood at 0%. In addition, in the series with Tau-BiFC cells, the “Cell viability (% @10 μM)” value is given as 115.2%.
As for `COc1cc(NN=C(C#N)C#N)ccc1C(=O)Nc1cncc(C)n1` [Compound 105, (3-methoxy-4-(6-methylpyrazin-2-ylcarbamoyl)phenyl)carbonohydrazonoyl dicyanide], at tau protein (setting [1]), the remaining activity at 10 µM is 0%. This compound had a pIC50 against tau protein of 6.40. Moreover, the “Cell viability (% @10 μM)” value in the series with Tau-BiFC cells worked out at 142.9%.
For `N#CC(C#N)=NNc1ccc(OCc2ccccc2)c(C(F)(F)F)c1` [Compound 97, (4-(benzyloxy)-3-(trifluoromethyl)phenyl)carbonohydrazonoyl dicyanide] the same measures were 0%, 7.00 and 27.1%.
Regarding `N#CC(C#N)=NNc1ccc(Oc2ccccc2F)cc1` [Compound 93, (4-(2-fluorophenoxy)phenyl)carbonohydrazonoyl dicyanide], the remaining activity at 10 µM at tau protein (setting [1]) is 0%. Also, at tau protein, the pIC50 is 5.89. Also, in the series with Tau-BiFC cells, the “Cell viability (% @10 μM)” value was 66.5%.
The like results for `COc1ccc(NC(=O)c2ccc(NN=C(C#N)C#N)cc2OC)cc1` [Compound 109, (3-methoxy-4-(4-methoxyphenylcarbamoyl)phenyl)carbonohydrazonoyl Dicyanide] were, in that order, 0%, 5.85 and 141.8%.
The like results for `Cc1ccc(COc2ccc(NN=C(C#N)C#N)cn2)cc1` [Compound 99, (6-(4-methylbenzyloxy)pyridin-3-yl)carbonohydrazonoyl dicyanide] were, in that order, 0%, 6.62 and 29.2%.
The like results for `N#CC(C#N)=NNc1ccc(Oc2cccnn2)cc1` [Compound 92, (4-(pyridazin-3-yloxy)phenyl)carbonohydrazonoyl dicyanide] were, in that order, 0%, 6.26 and 116.8%.
For `COc1ccc(CCOc2ccc(NN=C(C#N)C#N)cc2C(F)(F)F)cc1` [Compound 134, (4-(4-methoxyphenethoxy)-3-(trifluoromethyl)phenyl)carbonohydrazonoyl dicyanide], the remaining activity at 10 µM on tau protein (setting [1]) worked out at 0%. Besides, the “Cell viability (% @10 μM)” value with Tau-BiFC cells turned out to be 38.1%.
Consider `COc1ccc(CCOc2ccc(NN=C(C#N)C#N)cc2)cc1` [Compound 120, (4-(4-methoxyphenethoxy)phenyl)carbonohydrazonoyl dicyanide], for which, at tau protein (setting [1]), the remaining activity at 10 µM was 0%. The compound also showed a pIC50 at tau protein of 5.84. In the series with Tau-BiFC cells, the “Cell viability (% @10 μM)” value worked out at 66.2%.
Consider `Cc1cncc(NC(=O)c2ccc(NN=C(C#N)C#N)cc2)c1` [Compound 48, (4-(5-methylpyridin-3-ylcarbamoyl)phenyl)carbonohydrazonoyl dicyanide], for which the remaining activity at 10 µM on tau protein (setting [1]) is 0%. The “Cell viability (% @10 μM)” value in the series with Tau-BiFC cells came to 122.3%.
Consider `N#CC(C#N)=NNc1ccc(Oc2ncccn2)cc1` [Compound 91, (4-(pyrimidin-2-yloxy)phenyl)carbonohydrazonoyl dicyanide], for which, at tau protein (setting [1]), the remaining activity at 10 µM stood at 0%. Besides, the pIC50 at tau protein was 5.51. Further, in the series on Tau-BiFC cells, the “Cell viability (% @10 μM)” value came out at 117%.
`Cc1ccc(NS(=O)(=O)c2ccc(NN=C(C#N)C#N)cc2)cn1` [Compound 65, (4-(N-(6-methylpyridin-3-yl)sulfamoyl)phenyl)carbonohydrazonoyl dicyanide]: the remaining activity at 10 µM on tau protein (setting [1]) was found to be 72.6%. Moreover, the “Cell viability (% @10 μM)” value in the series with Tau-BiFC cells was 111.4%.
As for `N#CC(C#N)=NNc1ccc(NC(=O)c2ccon2)nc1` [Compound 115, (6-(isoxazole-3-carboxamido)pyridin-3-yl)carbonohydrazonoyl dicyanide], at tau protein (setting [1]), the remaining activity at 10 µM came to 0%. On tau protein, the pIC50 was 6.22. For the same compound, the “Cell viability (% @10 μM)” value in the series on Tau-BiFC cells stood at 157.6%.
For `Cc1ccc(NC(=O)c2ccc(NN=C(C#N)C#N)c(C)c2)cn1` [Compound 55, (2-methyl-4-(6-methylpyridin-3-ylcarbamoyl)phenyl)carbonohydrazonoyl dicyanide], the remaining activity at 10 µM on tau protein (setting [1]) worked out at 65.6%. Further, the “Cell viability (% @10 μM)” value with Tau-BiFC cells was 116.1%.
With `Cc1cncc(NC(=O)c2ccc(NN=C(C#N)C#N)cn2)c1` [Compound 39, (6-(5-methylpyridin-3-ylcarbamoyl)pyridin-3-yl)carbonohydrazonoyl dicyanide], at tau protein (setting [1]), the remaining activity at 10 µM amounted to 0%. This compound gave a pIC50 against tau protein of 6.20. For the same compound, the “Cell viability (% @10 μM)” value in the series on Tau-BiFC cells was determined as 131.1%.
Regarding “(2-methoxy-4-(5-methylpyrazine-2-carboxamido)phenyl)carbonohydrazonoyl dicyanide [Compound 4]”, the “Response (% @10 μM)” value at tau protein (setting [1]) amounted to 30.7%. Moreover, the “Cell viability (% @10 μM)” value in the series with Tau-BiFC cells is given as 67%.

(Values after US12649723B2, “Carbonohydrazonoyl dicyanide compounds comprising 2 or more aryl or heteroaryl connected via linker and use thereof” (KOREA INSTITUTE OF SCIENCE AND TECHNOLOGY, priority 2020, dated 2026).)
